Assay results taken from the NIST ThermoML archive (doi:10.1016/j.jct.2016.05.027).
± gives the expanded uncertainty stated by the source.

Experiments:
[1] = Crystal
[2] = Molar enthalpy of transition or fusion; details: Crystal; DSC

Cc1cccc([N+](=O)[O-])c1N [2-methyl-6-nitroaniline]
mass density ([1]; 298.15 K, 101.33 kPa, flotation method): 1242.4 ± 2.6 kg/m3 | Normal melting temperature ([1]; DTA): 93.60 ± 1.1 °C | Molar enthalpy of transition or fusion [2]: 5.77 ± 0.225 kcal/mol
